Measurements taken from publication PMC3914206.

Assays:
[1] = target: T1, panel of 442 kinases (Homo sapiens, UniProt Q9UBE8); format: binding; conditions: Compound Concentration 10 µM
T1 construct: purchased KINOMEscan
T1 sequence (Q9UBE8 1-527): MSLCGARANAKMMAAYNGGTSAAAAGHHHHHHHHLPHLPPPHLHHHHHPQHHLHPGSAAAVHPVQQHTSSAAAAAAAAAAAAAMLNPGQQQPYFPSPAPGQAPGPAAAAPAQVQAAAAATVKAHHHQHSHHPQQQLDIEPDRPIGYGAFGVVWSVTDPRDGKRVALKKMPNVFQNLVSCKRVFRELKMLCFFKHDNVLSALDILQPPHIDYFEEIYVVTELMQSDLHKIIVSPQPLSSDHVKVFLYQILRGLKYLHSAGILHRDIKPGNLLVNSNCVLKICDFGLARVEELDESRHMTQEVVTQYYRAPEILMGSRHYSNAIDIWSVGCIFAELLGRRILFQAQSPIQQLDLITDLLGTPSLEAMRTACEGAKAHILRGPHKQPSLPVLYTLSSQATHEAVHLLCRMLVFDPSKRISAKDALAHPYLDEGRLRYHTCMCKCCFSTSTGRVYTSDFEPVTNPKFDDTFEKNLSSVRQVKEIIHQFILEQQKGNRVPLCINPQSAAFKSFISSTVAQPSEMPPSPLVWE
Excerpt: (§1) We assessed the selectivity of members of this scaffold using the KINOMEscan methodology across a near comprehensive panel of 442 kinases [[18,27]].

[2] = target: T2, panel of 442 kinases (Homo sapiens, UniProt O00444); format: binding; conditions: Compound Concentration 10 µM
T2 construct: purchased KINOMEscan
T2 sequence (O00444 1-970): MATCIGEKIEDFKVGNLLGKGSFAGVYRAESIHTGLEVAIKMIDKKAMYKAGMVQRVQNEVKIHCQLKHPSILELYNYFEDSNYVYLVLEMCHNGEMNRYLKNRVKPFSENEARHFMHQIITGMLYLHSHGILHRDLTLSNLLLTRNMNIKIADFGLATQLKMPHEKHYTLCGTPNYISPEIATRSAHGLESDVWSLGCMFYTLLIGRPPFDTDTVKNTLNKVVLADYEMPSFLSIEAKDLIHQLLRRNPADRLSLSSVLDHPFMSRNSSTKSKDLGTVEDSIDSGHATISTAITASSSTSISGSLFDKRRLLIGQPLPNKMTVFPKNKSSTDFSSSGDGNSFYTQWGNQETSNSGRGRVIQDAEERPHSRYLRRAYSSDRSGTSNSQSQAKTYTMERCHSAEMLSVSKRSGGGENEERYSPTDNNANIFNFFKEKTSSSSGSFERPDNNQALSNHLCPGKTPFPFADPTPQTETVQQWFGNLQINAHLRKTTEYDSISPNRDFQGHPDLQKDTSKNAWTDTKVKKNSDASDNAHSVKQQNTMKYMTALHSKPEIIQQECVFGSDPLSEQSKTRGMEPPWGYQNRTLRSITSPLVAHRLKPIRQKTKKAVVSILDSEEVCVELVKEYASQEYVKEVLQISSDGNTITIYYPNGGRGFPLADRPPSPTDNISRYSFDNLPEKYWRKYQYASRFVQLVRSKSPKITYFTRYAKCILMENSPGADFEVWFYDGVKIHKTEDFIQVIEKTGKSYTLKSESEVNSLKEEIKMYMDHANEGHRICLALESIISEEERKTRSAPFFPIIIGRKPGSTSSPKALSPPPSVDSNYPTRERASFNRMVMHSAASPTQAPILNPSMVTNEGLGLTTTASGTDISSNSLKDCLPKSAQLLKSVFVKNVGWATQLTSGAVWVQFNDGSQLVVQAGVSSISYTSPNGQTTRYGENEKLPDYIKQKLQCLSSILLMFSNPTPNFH
Excerpt: as §1

Compound	KINOMEscan: NLK [1]	KINOMEscan: PLK4 [2]
COc1cc(C(=O)N2CCC(N3CCN(C)CC3)CC2)ccc1Nc1ncc2c(n1)N(C)c1ccccc1C(=O)N2C [15 (LRRK2-IN-1)]	50	0
COc1cc(C(=O)N2CCC(N3CCN(C)CC3)CC2)ccc1Nc1ncc2c(n1)N1CCc3cccc(c31)C(=O)N2C [Compound 24]	68	0.3
COc1cc(C(=O)N2CCC(N3CCN(C)CC3)CC2)ccc1Nc1ncc2c(n1)N(C1CCCC1)c1ccccc1C(=O)N2C [Compound 25, 11-cyclopentyl-2-((2-methoxy-4-(4-(4-methylpiperazin-1-yl)piperidine-1-carbonyl)phenyl)amino)-5-methyl-5H-benzo[e]pyrimido[5,4-b][1,4]diazepin-6(11H)-one]	63	0.25
CCOc1cc(C(=O)N2CCC(N3CCN(C)CC3)CC2)ccc1Nc1ncc2c(n1)N(C1CCCC1)c1ccccc1C(=O)N2C [Compound 26]	78	5.1
